Measured values as given in US9913838B2, “Methods of treating cancer using compositions comprising perillyl alcohol derivative” (NEONC TECHNOLOGIES INC., priority 2010, dated 2018).
Entries after “also recorded” stand apart in the source; their conditions may differ.

Assays:
HCC-1937 = experiment: Colony formation assay, HCC-1937; format: cell-based, human; conditions: for IC50: Homo sapiens, HCC1937, 48 h, read-out: IC50 (concentration required to decrease colony formation by 50%)
Protocol: (§1) Depending on the cell line (and plating efficiency), 200-350 cells were seeded into each well of a 6-well plate. […] Thereafter, the drugs were removed, fresh growth medium was added, and the cells were kept in culture undisturbed for 12-16 days, during which time the surviving cells spawned colonies of descendants. Colonies (defined as groups of >50 cells) were visualized by staining for 4 hours with 1% methylene blue (in methanol), and then were counted.
(§2) The cytotoxic potency of TMZ-POH, was analyzed by colony formation assay (CFA) in a variety of human breast cancer cell lines and compared to the cytotoxicity of TMZ. We used estrogen receptor positive cells MCF7 and T47D, the triple-negative lines MDA-MB-231, MDA-MB-468, and HCC-1937, and a brain-seeking variant of the 231 cell line, MDA-MB-231-br.

[1] = system: TMZ resistant (U251TR) U251 cells; experiment: Colony forming assay, TMZ resistant U251TR cells; format: cell-based, human; conditions: in words
Protocol: Colony forming assays were carried out after cells were treated with TMZ alone, POH alone, and the TMZ-POH conjugate. […] Cancer Lett. 2011 Mar. 28; 302(2):100-8.

A172 human glioma cells = experiment: MTT cytotoxicity assay, A172 glioma cells; conditions: A172; result in words
Source text: (§3) In vitro efficacy of the present composition can be determined using methods well known in the art. For example, the cytoxicity of the present monoterpene (or sesquiterpene) and/or the therapeutic agents may be studied by MTT [3-(4,5-dimethylthiazol-2-yl)-2,5-diphenyl tetrazolium bromide] cytotoxicity assay. MTT assay is based on the principle of uptake of MTT, a tetrazolium salt, by metabolically active cells where it is metabolized into a blue colored formazon product, which can be read spectrometrically. J. of Immunological Methods 65: 55 63, 1983. The cytoxicity of the present monoterpene (or sesquiterpene) derivative and/or the therapeutic agents may be studied by colony formation assay. Functional assays for inhibition of VEGF secretion and IL-8 secretion may be performed via ELISA. Cell cycle block by the present monoterpene (or sesquiterpene) derivative and/or the therapeutic agents may be studied by standard propidium iodide (PI) staining and flow cytometry. Invasion inhibition may be studied by Boyden chambers. In this assay a layer of reconstituted basement membrane, Matrigel, is coated onto chemotaxis filters and acts as a barrier to the migration of cells in the Boyden chambers. Only cells with invasive capacity can cross the Matrigel barrier. Other assays include, but are not limited to cell viability assays, apoptosis assays, and morphological assays.
(§4) First cytotoxicity assays were carried out after cells were treated with dimethyl-celecoxib (DMC) alone.
(§5) Then U87, A172 and U251 cells were treated with dimethyl celecoxib bisPOH carbamate (POH−DMC) (e.g., synthesized by the method in Example 1), and the MTT cytotoxicity assays performed (FIG. 2).
(§6) First cytotoxicity assays were carried out after cells were treated with temozolomide (TMZ) alone, the standard alkylating agent used in the treatment of malignant gliomas.
(§7) Then TMZ-resistant glioma cell lines U87, A172 and U251 cells were treated with TMZ-POH (e.g., synthesized by the method in Example 3).
(§8) To compare the cytotoxicity of Rolipram POH Carbamate (POH-Rolipram) (e.g., synthesized by the method in Example 5) with rolipram, […] inducing differentiation and apoptosis in glioma cells, A172, U87, U251 and LN229 human glioma cells were treated with either POH-Rolipram or rolipram for 48 hours.

U87 human glioma cells = experiment: MTT cytotoxicity assay, U87 glioma cells; conditions: U87; result in words
Source text: as §3, §4, §5, §6, §7, §8

[2] = system: D3H2LN cells implanted into the brains; experiment: Intracranial breast cancer tumor model in nude mice; format: in vivo; conditions: for median survival: TMZ-POH s.c., TMZ via gavage
Source text: In FIG. 27A, all surviving animals were imaged again on days 21, 28, and 36. […] Arrow labeled Rx indicates the time period of treatment.
All animal protocols were approved by the Institutional Animal Care and Use Committee (IACUC) of University of Southern California, and all rules and regulations were followed during experimentation on animals. Athymic mice (Harlan, Inc., Indianapolis, Ind.) were implanted intracranially with 2×10^5 cells. A subline of MDA-MB-231 cells called D3H2LN was used, which was transfected with the firefly luciferase gene and had been selected for aggressive growth and metastasis in vivo. Ten days after intracranial implantation, efficient tumor take was confirmed in all animals via non-invasive whole-body bioluminescent imaging. For this purpose, mice were intravenously injected with 50 mg/kg D-Luciferin (Perkin Elmer, Waltham, Mass.) and imaged using the Xenogen IVIS-200 Imaging System (Caliper/Perkin Elmer). Images were analyzed by region-of-interest (ROI) analysis using the Living Image software package (Caliper/Perkin Elmer) to quantitate light output (radiance, i.e., photons per second per square centimeter per steradian).
Group 1 was the control group that received vehicle only (45% glycerol, 45% ethanol, 10% DMSO) via subcutaneous injection. Group 2 was the experimental group that received 25 mg/kg TMZ-POH via subcutaneous (s.c.) injection. Group 3 was the comparison group and animals received 25 mg/kg TMZ via gavage. Treatment was once per day for a period of 10 days (i.e., 10 treatments total). Thereafter, all surviving animals were imaged again, once per week.
We used D3H2LN cells, which are a bioluminescent variant of the MDA-MB-231 cell line with aggressive tumor growth in mice. These cells were implanted into the brains of nude mice, and 10 days later all animals were imaged for luciferase expression in order to confirm efficient tumor take.
Animals were distributed into three groups and treated once daily for 10 days with vehicle alone (control), 25 mg/kg TMZ-POH, or 25 mg/kg TMZ.

U251 human glioma cells = experiment: MTT cytotoxicity assay, U251 glioma cells; conditions: U251; result in words
Source text: as §3, §4, §5, §6, §7, §8
MTT cytotoxicity assays were carried out after cells were treated with the TMZ-POH conjugate. The MTT cytotoxicity assays were carried out as described in Chen T C, et al. Green tea epigallocatechin gallate enhances therapeutic efficacy of temozolomide in orthotopic mouse glioblastoma models. Cancer Lett. 2011 Mar. 28; 302(2):100-8.

T47D = experiment: Colony formation assay, T47D; format: cell-based, human; conditions: for IC50: Homo sapiens, 48 h, read-out: IC50 (concentration required to decrease colony formation by 50%)
Protocol: as §1, §2

[3] = 25 mg/kg once daily for 10 days
[4] = low micromolar concentrations, 48 hours, in words

Cn1nnc2c(C(N)=O)ncn2c1=O [TMZ, temozolomide, reference compound]
IC50 (HCC-1937): 186 µM | cytotoxicity (colony forming assay) [1]: minimal cytotoxicity | cytotoxicity (MTT assay) (A172 human glioma cells): minimal cytotoxicity | cytotoxicity (MTT assay) (U87 human glioma cells): minimal cytotoxicity | additional survival after the termination of treatment [2, 3]: 8 days | median survival [2, 3]: 28 days | cytotoxicity (MTT assay) (U251 human glioma cells): minimal cytotoxicity | IC50 (T47D; T47D): 20 µM

C=C(C)[C@@H]1CC=C(COC(=O)NC(=O)c2ncn3c(=O)n(C)nnc23)CC1 [TMZ-POH]
IC50 (HCC-1937): 31 µM | Differential (−fold) (HCC-1937; fold increase in potency of TMZ-POH compared to TMZ, HCC-1937): 6.0 −fold | colony formation (CFA) (HCC-1937; [4]): prevented colony formation | cytotoxicity (colony forming assay) [1]: demonstrated cytotoxicity; also recorded: substantially greater potency compared to POH alone | cytotoxicity (MTT assay) (A172 human glioma cells): substantially higher kill rates | cytotoxicity (MTT assay) (U87 human glioma cells): substantially higher kill rates | additional survival after the termination of treatment [2, 3]: 30 days | median survival [2, 3]: 50 days | status of animals by day 36 ([2]; 25 mg/kg once daily for 10 days, in words): still alive with no obvious signs of distress | bioluminescent imaging after 10-day treatment period ([2]; 25 mg/kg once daily, in words): only small changes in radiance | increase of ROI radiance ([2]; between days 10 and 21, representative mouse, 25 mg/kg once daily 10 days): 1.7 fold | ROI radiance ([2]; day 10, representative mouse): 1.11E7 photons per second per square | ROI radiance ([2]; day 21, representative mouse): 1.92E7 photons per second per square | ROI radiance ([2]; day 43, representative mouse): 1.88E8 photons per second per square | cytotoxicity (MTT assay) (U251 human glioma cells): substantially higher kill rates; also recorded: demonstrated cytotoxicity | IC50 (T47D; T47D): 4.6 µM | Differential (−fold) (T47D; fold increase in potency of TMZ-POH compared to TMZ, T47D): 4.3 −fold | colony formation (CFA) (T47D; [4]): prevented colony formation
